# Measurements from US20100203001A1, “PROCESS FOR FORMING DISULFIDE BRIDGES” (APLAGEN GMBH, priority 2007, published 2010).
# “Also recorded” adds a separate entry of the source. Like-named read-outs stand apart in the source and are kept apart here.
# Key:
# [1] = tests of the capacity to promote the formation of disulfide bridges; type: biochemical
# Experimental: The tests were carried out as described previously (see above). The substance tested and the amounts tested are stated in each case.
# hair = assay: oxidation of hair reduced with ammonium thioglycolate Wave-Lotion, free thiol groups by Ellman's reagent (412 nm); conditions: air, room temperature, 3 days
# Experimental: The solution is removed and the hair is then washed 6 times with 400 μl H2O each time.
# For determination of the free thiol groups still remaining, after removing the reaction solution the hair is reacted with fEllman's reagent (5,5′-dithiobis(2-nitrobenzoic acid), DTNB). […] The hair samples are put in 200 μl each of 100 mM phosphate buffer, pH 8.0 and 1 mM EDTA, and 300 μl of a 1 mM DTNB solution in the same EDTA-containing buffer. The solution is analyzed after a few minutes in a UV-Vis spectrometer.
# BB57 = assay: cyclization (oxidation) of EPO mimetic peptide BB57 to BB57C in air in water, monitored by HPLC or Ellman's test; type: biochemical
# oxytocin, reduced (OxyR) = oxytocin, reduced (OxyR) (Homo sapiens, UniProt P01178); assay: cyclization of reduced oxytocin-derived peptide (OxyR) to oxytocin (Oxy) in air, HPLC; type: biochemical; conditions: GSSG optionally added with caffeine
# Experimental: The reaction mixture was analyzed by HPLC at regular intervals, in order to determine the contents of OxyR and the product oxytocin (Oxy).
# human hair = assay: oxidation of reduced human hair by heterocyclic compound with metal ions, thiol groups by Ellman's reagent
# Experimental: To this end, for each measuring point the disulfide bridges of 5 mg hair were first reduced using ammonium thioglycolate/ammonium thiolactate (commercially available formulations for permanent waves) in order to open them. Subsequently, the reduction solution is removed and the hair was washed with water several times. Then, the hair was subjected to the different oxidation mixtures in order to again close the disulfide bridges. After filtrating these solutions, the amount of thiol groups was determined using the Ellman's reagent. Thereby, a statement on the speed and efficiency of the oxidation step and thus the renewed closure of the disulfide bridges can be made.
# In several experiments combinations of different metal additives in place of higher amounts of a single salt component are also used. The amounts in the mixture “artificial tap water” described below are based on the maximum values of the regulation for tap water of the FRG, wherein the following combination of metal ions was used: 0.2 mg/L iron ([…], 5 mg/L zinc (Zn^2+), 2 mg/L copper (Cu^2+) and some hardening components 100 mg/L calcium (Ca^2+) and 50 mg/L magnesium (Mg^2+).
# EPO mimetic peptide = assay: cyclization of an EPO mimetic peptide that can only be cyclized with great difficulty; type: biochemical; conditions: 10 mg/ml caffeine
# Experimental: Some of the EPO mimetic peptides can only be cyclized with great difficulty. An example is the following peptide:
# The yield after approx. 21 h in solution was already >90%.
# [2] = single agent in water (10 mg/ml caffeine or 5 mg/ml GSSG)
# [3] = in combination with artificial tap water salt mixture
compound,measurement,setting,value
Nc1cnccn1 [aminopyrazine],capacity to promote the formation of disulfide bridges,[1],do not have the capacity to promote the formation of disulfide bridges
glutathione in oxidized form [GSSG],oxidation of the thiol groups of reduced hair,hair; [2],partial oxidation of the thiol groups
same,conversion of the peptide,BB57,only takes place slowly
same,influence on rate or yield,"oxytocin, reduced (OxyR)",no influence on rate or yield
NC(=O)c1cnccn1 [pyrazine amide],capacity to promote the formation of disulfide bridges,[1],do not have the capacity to promote the formation of disulfide bridges
"O=C1NC(=O)C(=O)C(=O)N1 [alloxan, alloxan monohydrate]",reverse oxidation of the thiols in hair,"human hair; 0.1% alloxan solution with low amounts of iron(III) ions, after 10 minutes",almost complete reverse oxidation
same,advantage due to the addition of salt,"human hair; alloxan with iron(III) chloride or artificial tap water, control after 10 minutes",small advantage
same,oxidation of reduced hair,human hair; [3],completely oxidize the hair
same,effect of iron(III) ions on oxidation,BB57,accelerating effect
same,reaction time,BB57,less than an hour
same,time until almost completely cyclised,BB57,about 2 h
same,capacity to promote the formation of disulfide bridges,[1],Active
Nc1nc(N)nc(N)n1 [melamine],capacity to promote the formation of disulfide bridges,[1],do not have the capacity to promote the formation of disulfide bridges
"Nc1cc(N2CCCCC2)nc(N)[n+]1[O-] [minoxidil, 6-(1-piperidinyl)-2,4-pyrimidinediamine-3-oxide]",time until oxidation is completed,"BB57; 0.7 mg BB57 and 0.3 mg substance in 1 ml distilled water, in the air, HPLC",approx. 29 h
Cc1cc(O)nc(C(C)C)n1 [2-isopropyl-6-methyl-4-pyrimidinol],capacity to promote the formation of disulfide bridges,[1],active
Cn1c(=O)c2c(ncn2C)n(C)c1=O [caffeine],oxidation of the thiol groups of reduced hair,hair; combination 10 mg/ml caffeine and 5 mg/ml GSSG,almost quantitative oxidation of the thiol groups
same,oxidation of the thiol groups of reduced hair,hair; [2],partial oxidation of the thiol groups
same,strength as catalysator on hair,human hair; comparison with alloxan,weaker compared to alloxan
same,duration of the reaction compared with alloxan,human hair; [3],takes longer
same,oxidation of reduced hair,human hair; [3],completely oxidize the hair
same,reaction time until complete conversion,BB57,about 10 h
same,time of cyclisation,BB57,about an hour; also recorded: shortened
same,time until complete conversion,BB57,about 15 h
same,time until conversion is quantitative,BB57,ten
same,time until oxidation is completed,BB57,approx. 24 h
same,time until cyclization successful,EPO mimetic peptide,≤ 24 h
"Cc1cc(O)nc(C)n1 [2,4-dimethyl-6-hydroxypyrimidine]",capacity to promote the formation of disulfide bridges,[1],active
O=C(O)c1cc(O)nc(O)n1 [uracil-6-carboxylic acid],capacity to promote the formation of disulfide bridges,[1],active
"O=c1ccc(=O)[nH][nH]1 [1,2-dihydro-3,6-pyridazinedione]",capacity to promote the formation of disulfide bridges,[1],active
"Nc1ccnc(N)n1 [2,4-diaminopyrimidine]",capacity to promote the formation of disulfide bridges,[1],do not have the capacity to promote the formation of disulfide bridges
"Oc1cc(O)ncn1 [4,6-dihydroxy-pyrimidine]",capacity to promote the formation of disulfide bridges,[1],active
"O=C(O)CN(CCN(CC(=O)O)CC(=O)O)CC(=O)O [EDTA, ethylenediaminetetraacetic acid]",effect of complexing agent on the strong effect of the iron ions,BB57; alloxan plus iron ions (3 μM) with two equivalents EDTA,slightly weakened
"Cc1nc(O)cc(O)n1 [4,6-dihydroxy-2-methylpyrimidine]",capacity to promote the formation of disulfide bridges,[1],active
Cn1ccc(=O)[nH]c1=O [1-methyl-uracil],capacity to promote the formation of disulfide bridges,[1],good activity
O=S(=O)([O-])[O-].[Fe+2] [iron(II) sulfate],accelerating effect on the cyclisation of BB57,BB57,no activity
O=C(O)c1cnccn1 [pyrazine-carboxylic acid],capacity to promote the formation of disulfide bridges,[1],do not have the capacity to promote the formation of disulfide bridges
"Cc1cc(O)nc(O)n1 [2,4-dihydroxy-6-methylpyrimidine]",capacity to promote the formation of disulfide bridges,[1],active
O=C1CC(=O)NC(=O)N1 [barbituric acid],capacity to promote the formation of disulfide bridges,[1],Active
potassium hexacyanoferrate,effect of stable metal ion complex on cyclisation by alloxan,"BB57; alloxan plus potassium hexacyanoferrate(II) or (III) (30 μM), Ellman's reagent",accelerating effect
O=C1NC(=O)C(=NO)C(=O)N1 [violuric acid],capacity to promote the formation of disulfide bridges,[1],Active
